# Test results as given in patent US9868748B2, “Thiazolopyrrolidine inhibitors of ROR- γ” (Vitae Pharmaceuticals, Inc., priority 2013, dated 2018).
# Read-outs that look alike come from different tables or passages of the source.
# What was measured:
# [1] = target: recombinant RORγ Ligand Binding Domain (LBD) protein (Homo sapiens (Human), UniProt P51449); test: Radio-Ligand RORγ Binding Assay (Assay 1); details: competition with 25-hydroxy [26,27-3H]-cholesterol, SPA, read-out: RORγ Binding Ki Range*
# Protocol: Radio-Ligand RORγ Binding Assay (Assay 1)
# Compounds of the present invention were tested for ability to bind to RORγ in a cell-free competition assay with commercially available radio-ligand (RL), 25-hydroxy [26,27-^3H]— cholesterol (PerkinElmer, Cat. # NET674250UC), for a ligand binding site on a recombinant RORγ Ligand Binding Domain (LBD) protein expressed as a 6×His-Glutathione-S-Transferase (GST) fusion (“6×His” disclosed as SEQ ID NO: 2). The assay was performed in 96-well SPA plates (PerkinElmer, Cat. #1450-401) in 50 mM HEPES buffer, pH 7.4, containing 150 mM NaCl, 5 mM MgCl2, 10% (v/v) glycerol, 2 mM CHAPS, 0.5 mM β-octylglucopyranoside and 5 mM DTT. Tested compounds were dissolved in DMSO, and semi-log (3.162×) serial dilutions of the compounds were prepared in the same solvent. Two μL of the DMSO solutions were mixed with 28 μL of 8.6 nM 25-hydroxy [26,27-^3H]— cholesterol and 50 μL of 24 nM RORγ LBD. The plate was shaken at 700 rpm for 20 min and incubated for 10 min at rt, after which 40 μL of poly-Lys YSi SPA beads (PerkinElmer, Cat. # RPNQ0010) were added to achieve 50 μg of the beads per well. The plate was incubated on an orbital shaker for 20 min and then for 10 min without agitation at rt. SPA signal for tritium beta radiation was registered on PerkinElmer Microbeta plate reader. Percent inhibition values were calculated based on the high signal obtained with DMSO control and the low signal observed with 10 μM standard RORγ inverse agonist T0901317 (SigmaAldrich, Cat. # T2320). The percent inhibition vs. concentration data were fit into a four-parameter model, and […] values were calculated from the fit as the concentrations corresponding to the inflection points on the dose-response curves. Inhibitory constants (Ki) were calculated using the following equation, where [RL] is the concentration in the assay and KD is a dissociation constant of 25-hydroxy [26,27-^3H]-cholesterol: […]
# [2] = target: full-length RORγt in Jurkat cells (Homo sapiens (Human), UniProt P51449); test: RORγt 5xRORE Assay in Jurkat Cells (Assay 2); assay type: cell-based; details: Nanoluc luciferase reporter, 16-18 hrs
# Protocol: [formula] RORγt 5xRORE Assay in Jurkat Cells (Assay 2)
# Compounds of the present invention were tested for RORγ inverse agonist activity in a cell-based, transcriptional activity assay. Secreted Nanoluc® luciferase was used as a reporter for transcriptional activity of the full-length RORγt in Jurkat cells (ATCC, Cat. # TIB-152). A reporter plasmid was constructed by inserting 5 repeats of the ROR Response Element (RORE) […] (SEQ ID NO:1) into a commercially available promoterless plasmid pNL1.3[secNluc] (Promega, Cat. # N1021) using KpnI and HindIII restriction sites. The expression plasmid for RORγt was purchased (Geneocopoeia, Cat. # EX-T6988-M02). Jurkat cells (30 million cells) were transfected with 11 μg of EX-T6988-MO2 and 26 μg of the reporter plasmid in OptiMEM® media using Lipofectamine® LTX and Plus™ reagents (Life Technologies, Cat. #15338-100). After 5-6 h of incubation at 37° C./5% CO2, the cells were collected, resuspended in phenol-red free RPMI media containing 10% (v/v) delipidated FBS (Hyclone, Cat. # SH30855.03) and dispensed into 96-well clear bottom tissue culture plates (CoStar, Cat. #3603), at 80,000 cells per well. Tested compounds were added to the cells in the same media (final concentration of DMSO was 0.1% (v/v)), and the plates were incubated at 37° C./5% CO2 for 16-18 hrs. Luciferase activity in the conditioned supernatants was determined with NanoGlo® assay reagents (Promega, Cat. # N1130).
# [3] = Table 9, read-out: RORγt5X IC50 Range*
# [4] = Table 8, read-out: RORγt5X IC50 Range*
# Sequence of full-length RORγt in Jurkat cells (P51449 other isoform, or with tags, fused parts or gaps): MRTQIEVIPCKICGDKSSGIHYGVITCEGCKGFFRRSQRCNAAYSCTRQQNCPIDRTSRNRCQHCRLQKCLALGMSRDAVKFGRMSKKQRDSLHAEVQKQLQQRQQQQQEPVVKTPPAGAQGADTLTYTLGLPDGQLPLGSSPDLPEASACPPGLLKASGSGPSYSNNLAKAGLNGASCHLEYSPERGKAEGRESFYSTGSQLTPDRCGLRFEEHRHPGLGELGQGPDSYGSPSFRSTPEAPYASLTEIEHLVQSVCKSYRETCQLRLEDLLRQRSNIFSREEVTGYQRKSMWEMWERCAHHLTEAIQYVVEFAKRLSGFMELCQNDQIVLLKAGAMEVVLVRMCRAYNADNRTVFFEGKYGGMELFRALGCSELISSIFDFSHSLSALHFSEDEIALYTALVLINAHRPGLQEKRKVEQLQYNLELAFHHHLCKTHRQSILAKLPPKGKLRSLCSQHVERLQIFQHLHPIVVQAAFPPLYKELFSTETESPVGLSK
# Sequence of recombinant RORγ Ligand Binding Domain (LBD) protein (P51449 269-508): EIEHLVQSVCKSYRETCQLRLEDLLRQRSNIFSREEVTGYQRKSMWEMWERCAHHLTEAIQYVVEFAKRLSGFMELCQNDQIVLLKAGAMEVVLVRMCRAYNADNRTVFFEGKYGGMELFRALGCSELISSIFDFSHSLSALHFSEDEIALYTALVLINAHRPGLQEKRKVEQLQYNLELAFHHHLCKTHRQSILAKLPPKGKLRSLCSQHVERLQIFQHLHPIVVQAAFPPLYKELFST
Ki ([1]; Table 9) [nM],"IC50 [2, 3] [nM]",Ki ([1]; Table 8) [nM],"IC50 [2, 4] [nM]",Structure (SMILES)
< 100,< 100,,,"CCS(=O)(=O)c1ccc(CC(=O)Nc2nc3c(s2)CN(C[C@H]2CC[C@@](O)(C(F)(F)F)CC2)[C@H]3C(C)C)cc1 (single isomer, unassigned)"
< 100,> 1000,,,"CCS(=O)(=O)c1ccc(CC(=O)Nc2nc3c(s2)CN(C[C@@H]2CC[C@H](C(F)(F)F)NC2)[C@H]3C(C)C)nc1 (single isomer, unassigned)"
< 100,> 1000,,,CC[C@@H]1c2nc(NC(=O)Cc3ccc(S(=O)(=O)CC)cc3)sc2CN1Cc1ccc(Cl)cc1
< 100,100 to 1000,,,CC(C)[C@H]1c2nc(NC(=O)Cc3ccc(C#N)cc3)sc2CN1Cc1ccc(C#N)c(Cl)c1
,,< 100,< 100,CCS(=O)(=O)c1ccc(CNC(=O)c2nc3c(s2)CN(Cc2ccc(C#N)cc2)[C@H]3C(C)C)cc1 [I-J2]
< 100,100 to 1000,,,CCS(=O)(=O)c1ccc(CC(=O)Nc2nc3c(s2)CN(Cc2ccc(=O)n(C4CC4)c2)[C@H]3C(C)C)cc1
< 100,< 100,,,CCS(=O)(=O)c1ccc(CC(=O)Nc2nc3c(s2)CN(C[C@H]2CC[C@H](C#N)CC2)[C@H]3C(C)C)cc1
< 100,> 1000,,,CC[C@@H]1c2nc(NC(=O)Cc3ccc(S(=O)(=O)CC)cc3)sc2CN1Cc1ccc(OC(C)C)cc1
,,< 100,< 100,CCc1ccc(CN2Cc3sc(NC(=O)Cc4ccc(S(=O)(=O)CC)cc4)nc3[C@@H]2C(C)C)cc1 [I-A63]
,,< 100,> 1000,"CCS(=O)(=O)c1ccc(CC(=O)Nc2nc3c(s2)CN(Cc2ccc(F)cc2)C3Cc2cccc(Br)c2)cc1 (stereo not shown) [I-F1, N-(4-(3-bromobenzyl)-5-(4-fluorobenzyl)-5,6-dihydro-4H-pyrrolo[3,4-d]thiazol-2-yl)-2-(4-(ethylsulfonyl)phenyl)acetamide]"
< 100,> 1000,,,"CCS(=O)(=O)c1ccc(CC(=O)Nc2nc3c(s2)CN(C[C@@H]2CC[C@H](C(F)(F)F)OC2)[C@H]3C(C)C)nc1 (single isomer, unassigned)"
< 100,> 1000,,,"CCS(=O)(=O)c1ccc(CC(=O)Nc2nc3c(s2)CN(C[C@@H]2CCCOC2)[C@H]3C(C)C)cc1 (single isomer, unassigned)"
,,< 100,< 100,CCS(=O)(=O)c1ccc(CC(=O)Nc2nc3c(s2)CN(Cc2ccc(C#N)cc2)[C@H]3C(C)C)cc1 [I-A15]
< 100,100 to 1000,,,Cc1cc(CN2Cc3sc(NC(=O)Cc4ccc(C#N)cc4)nc3[C@@H]2C(C)C)ccc1C#N
100 to 1000,100 to 1000,,,CC(C)[C@H]1c2nc(NC(=O)Cc3ccc(F)c(F)c3)sc2CN1Cc1ccc(C(F)(F)F)cc1
< 100,100 to 1000,,,CC[C@H]1c2nc(NC(=O)Cc3ccc(S(=O)(=O)CC)cc3)sc2CN1Cc1ccc2nc[nH]c2c1
< 100,> 1000,,,CCS(=O)(=O)c1ccc(CC(=O)Nc2nc3c(s2)CN(Cc2ccc(OC)cc2)[C@@H]3C(C)C)cc1
< 100,100 to 1000,,,CCS(=O)(=O)c1ccc(CC(=O)Nc2nc3c(s2)CN(Cc2ccc(C(F)(F)F)cc2)[C@@H]3C(C)C)cc1
< 100,100 to 1000,,,CCS(=O)(=O)c1cnc(CNC(=O)c2nc3c(s2)CN(Cc2ccc(C#N)cc2)[C@H]3C(C)C)nc1
< 100,> 1000,,,CCS(=O)(=O)c1ccc(CC(=O)Nc2nc3c(s2)CN(Cc2cc(OC(F)(F)F)ccc2F)[C@@H]3C(C)C)cc1

Ki ([1]; Table 9) [nM],"IC50 [2, 3] [nM]",Ki ([1]; Table 8) [nM],"IC50 [2, 4] [nM]",Structure (SMILES)
< 100,> 1000,,,CCS(=O)(=O)c1ccc(CC(=O)Nc2nc3c(s2)CN(Cc2cc(OC(F)F)ccc2F)[C@@H]3C(C)C)cc1
< 100,< 100,,,CCS(=O)(=O)c1ccc(CNC(=O)c2nc3c(s2)CN(Cc2ccc4c(c2)OC(F)(F)O4)[C@H]3C(C)C)nc1
100 to 1000,100 to 1000,,,CC(C)[C@@H]1c2nc(NC(=O)Cc3ccc(S(C)(=O)=O)cc3)sc2CN1Cc1ccc(OC(F)F)cc1
,,< 100,< 100,CCS(=O)(=O)c1ccc(CC(=O)Nc2nc3c(s2)CN(Cc2ncc(Cl)cc2F)[C@H]3C(C)C)cc1 [I-A10]
< 100,100 to 1000,,,CCS(=O)(=O)c1cnc(CNC(=O)c2nc3c(s2)CN(Cc2ccc(C(F)(F)F)cc2)[C@H]3C(C)C)nc1
< 100,< 100,,,"CCS(=O)(=O)c1ccc(CC(=O)Nc2nc3c(s2)CN(C[C@H]2CC[C@](C)(OC)CC2)[C@H]3C(C)C)nc1 (single isomer, unassigned)"
< 100,100 to 1000,,,CC(C)[C@H]1c2nc(NC(=O)Cc3ccc(S(C)(=O)=O)cc3)sc2CN1[C@H](C)c1ccc(C#N)cc1Cl
,,< 100,< 100,CCS(=O)(=O)c1ccc(CC(=O)Nc2nc3c(s2)CN(Cc2ccc(OC(F)F)cn2)[C@H]3C(C)C)cc1 [I-A54]
< 100,< 100,,,CC(C)[C@H]1c2nc(NC(=O)Cc3ccc(S(C)(=O)=O)cc3)sc2CN1Cc1cnc(C(F)(F)F)nc1
,,< 100,< 100,"CCS(=O)(=O)c1ccc(CC(=O)Nc2nc3c(s2)CN(Cc2ccc(-c4ccc(=O)n(C)c4)cc2)[C@H]3C(C)C)cc1 [I-A19, (S)-2-(4-(ethylsulfonyl)phenyl)-N-(4-isopropyl-5-(4-(1-methyl-6-oxo-1,6-dihydropyridin-3-yl)benzyl)-5,6-dihydro-4H-pyrrolo[3,4-d]thiazol-2-yl)acetamide]"
,,< 100,< 100,"CCS(=O)(=O)c1ccc(CC(=O)Nc2nc3c(s2)CN(Cc2ccc(C#N)cn2)[C@@]3(C)C(C)C)cc1 [I-I1, (S)—N-(5-((5-cyanopyridin-2-yl)methyl)-4-isopropyl-4-methyl-5,6-dihydro-4H-pyrrolo[3,4-d]thiazol-2-yl)-2-(4-(ethylsulfonyl)phenyl)acetamide]"
100 to 1000,> 1000,,,CC(C)[C@H]1c2nc(NC(=O)Cc3ccc(Br)cc3)sc2CN1Cc1ccc(Cl)cc1
< 100,> 1000,,,"CCS(=O)(=O)c1ccc(CC(=O)Nc2nc3c(s2)CN(C[C@@H]2CC[C@H](C(F)(F)F)NC2)[C@H]3C(C)C)cc1 (single isomer, unassigned)"
100 to 1000,> 1000,,,CC(C)Oc1ccc(CC(=O)Nc2nc3c(s2)CN(Cc2ccc(Cl)cc2)[C@H]3C(C)C)cc1
,,< 100,> 1000,CCS(=O)(=O)c1ccc(CC(=O)Nc2nc3c(s2)CN(Cc2cccc(C(F)(F)F)c2)[C@H]3C(C)C)cc1 [I-A8]
,,< 100,< 100,"CCS(=O)(=O)c1ccc(CC(=O)Nc2nc3c(s2)CN(Cc2ccc(-c4ccn(C)c(=O)c4)cc2)[C@H]3C(C)C)cc1 [I-A18, (S)-2-(4-(ethylsulfonyl)phenyl)-N-(4-isopropyl-5-(4-(1-methyl-2-oxo-1,2-dihydropyridin-4-yl)benzyl)-5,6-dihydro-4H-pyrrolo[3,4-d]thiazol-2-yl)acetamide]"
100 to 1000,100 to 1000,,,CCS(=O)(=O)c1ccc(CC(=O)Nc2nc3c(s2)CN(Cc2ccc(C#N)cc2)[C@@H]3C(C)C)cc1
,,,< 100,CCS(=O)(=O)c1ccc(CC(=O)Nc2nc3c(s2)CN(Cc2ccc4c(c2)OC(F)(F)O4)[C@H]3C(C)C)nc1 [I-L3]
,,,< 100,CCS(=O)(=O)c1ccc(CC(=O)Nc2nc3c(s2)CN(C[C@@H]2CC[C@@H](C(F)(F)F)N(C)C2)[C@H]3C(C)C)cc1 [I-A30]
